Measured values reported in patent US20210330611A1, “THERAPY FOR NEUROLOGICAL DISEASES/DISORDERS” (priority 2020, published 2021).
Where two headings read alike, the source gives them in different places.

Key:
MOG35-55 EAE [1] = assay: Immunohistochemistry of spinal cord lesions in MOG35-55 EAE mice; format: in vivo, mouse
neuronal viability = settings: similar concentration range; cited from earlier work
intracellular GSH = format: cell-based, mouse
Method: Real-time imaging of glutathione. The real-time GSH dynamics in living BMDMs was determined with the fluorescent GSH probe, RealThiol RT-AM as described (37). Cells were plated on 2-well chamber slide (Nunc) pre-coated with 25 μg/ml fibrin. Cells were stimulated with fibrin with or without 5 μM acivicin or GGsTop. The GSH synthesis inhibitor, buthionine sulfoximine (BSO, Sigma-Aldrich) was used as positive control for reducing intracellular GSH levels at 100 μM. After 24 h incubation, cells were loaded with 1 μM RT-AM probe and were incubated for 5 min before imaging. The cells were kept at 37° C. during the entire experiment. […] For each independent experiment, laser power and detector settings were set using the control/untreated cells incubated with RT-AM alone as reference. All settings were kept constant throughout the experiment. […] The ratio calculated for each treatment was expressed as percentage from that of the untreated cells (control).

[2] = system: PLP139-151 EAE in SJL/J mice; assay: Relapsing PLP139-151 EAE in SJL/J mice, clinical scores; format: in vivo, mouse; settings: therapeutic, daily from peak of initial paralytic episode, FIG. 7c
primary microglia = format: cell-based, rat; settings: 48 h, FIG. 12
Method: FIGS. 12A-E. Effects of acivicin on microglia, macrophage and whole blood cell numbers. a, Representative images showing morphology and density of primary microglia treated with vehicle or acivicin for 48 h stained with nuclei marker Hoechst or CellMask Red Whole Cell Stain. Quantification of the total number of microglia. Data are representative of one experiment with technical replicates (open symbols). b, Representative confocal images showing morphology and density of control- and acivicin-treated BMDMs treated for 24 h. Scale bar, 100 μm. Insets depict digitally zoomed in areas of regions of interest. Quantification of the total number of BMDMs in the field of view. […] Cell viability of single CD45^+ cells was assessed by Sytox blue live/dead nuclei stain. Quantification of percent cell viability of CD45^+ BMDMs treated with acivicin or left untreated. Data are from 2 independent experiments with n=4 mice per group (mean±s.d.). d, Quantification of complete blood count analysis of white blood cells (WBCs), red blood cells (RBC), platelets (PLT) (left) and composition of WBCs (right) of blood samples from healthy mice treated with saline or acivicin for 10 days. […] Quantification of total microglia cell numbers in healthy mice treated with acivicin or saline. […]
Image-based HTS of small molecule inhibitors of microglia activation. […] The plates were stored in PBS for readout by imaging.

[3] = system: LPS-induced microglia activation; assay: Image-based assay of LPS-induced microglia activation (HTS and dose response); format: cell-based, rat
[4] = Serum protein carbonyl content assay in MOG35-55 EAE mice; format: in vivo, mouse; settings: FIG. 7g
Method: Protein carbonyl content assay. Blood was isolated from EAE mice via terminal cardiac puncture, and serum levels of protein carbonylation were measured with OxiSelect™ Protein Carbonyl ELISA (Cell Biolabs) according to the manufacturer's protocol. The absorbance at 450 nm was measured using a SpectraMax M5 microplate reader (Molecular Devices) with SoftMax Pro 5.2 software (Phoenix Technologies Ltd.).

MOG35-55 EAE [5] = assay: Active MOG35-55 EAE, clinical scores; format: in vivo, mouse; settings: mouse, in vivo, 5 mg/kg
[6] = system: fibrin-induced microglia activation; assay: Image-based assay of fibrin-induced microglia activation (HTS and dose response); format: cell-based, rat
in vitro = settings: rat, Cell Toxicity IC50 (uM) [cFib assay], cFib assay

N[C@H](C(=O)O)[C@@H]1CC(Cl)=NO1 [Acivicin, (2S)-2-amino-2-[(5S)-3-chloro-4,5-dihydro-1,2-oxazol-5-yl] acetic acid]
demyelination (MBP) (MOG35-55 EAE [1]; FIG. 7i): markedly reduced | neuronal damage (SMI-32) (MOG35-55 EAE [1]; FIG. 7i): markedly reduced | microglia activation (CX3CR1+ cells) (MOG35-55 EAE [1]; FIG. 7j): markedly reduced | monocyte/macrophage infiltration (CCR2+ cells) (MOG35-55 EAE [1]; FIG. 7j): markedly reduced | 4-hydroxynonenal (4-HNE) immunostaining (MOG35-55 EAE [1]; spinal cord, peak disease, FIG. 7f): markedly reduced | neuronal viability (neuronal viability): does not affect | fibrin-induced degradation of glutathione (RealThiol F405/F488) (intracellular GSH): inhibited | clinical severity during relapses [2]: suppressed | microglia cell number in vitro (primary microglia): did not affect | IC50 ([3]; Rattus norvegicus, Microglia, 48 h, Table 1, dose response 0.001-20 μM, triplicates, primary rat microglia, 48 h, read-out: LPS IC50): 1 µM | inhibition at 10 µM ([3]; Rattus norvegicus, Microglia, 48 h, primary microglia HTS, LPS stimulation, increased cell size (>800 μm^2) as marker of activation, read-out: LPS % inhibition): 93% | IC50 ([3]; Rattus norvegicus, Microglia, LPS-induced microglia activation, dose response, read-out: LPS IC50 (uM) (Suppl. Table 7)): 1 µM | IC50 ([3]; Rattus norvegicus, Microglia, Table 7, read-out: LPS_IC50): 1.66 µM | IC50 ([3]; Rattus norvegicus, Microglia, dose response, LPS-induced microglia activation, read-out: LPS IC50): 1 µM | LPS-induced microglial activation ([3]; dose-dependent, FIG. 6a): inhibited | serum protein carbonyl content [4]: markedly reduced | disease onset and severity (MOG35-55 EAE [5]): delayed | IC50 ([6]; Rattus norvegicus, Microglia, 48 h, Table 1, dose response 0.001-20 μM, triplicates, primary rat microglia, 48 h, read-out: Fibrin IC50): 2 µM | IC50 ([6]; Rattus norvegicus, Microglia, Table 7, read-out: fib_IC50): 0.57 µM | IC50 ([6]; Rattus norvegicus, Microglia, dose response, fibrin-induced microglia activation, read-out: Fibrin IC50): 2 µM | IC50 ([6]; Rattus norvegicus, Microglia, fibrin-induced microglia activation, dose response, read-out: Fibrin IC50 (uM) (Suppl. Table 7)): 2 µM | inhibition at 10 µM ([6]; Rattus norvegicus, Microglia, primary microglia HTS, fibrin stimulation, increased cell size (>800 μm^2) as marker of activation, read-out: Fibrin % inhibition): 90% | fibrin-induced microglial activation ([6]; dose-dependent, FIG. 6a): inhibited | IC50 (in vitro): > 20 µM
